We go through two compounds from patent US8535730B1, “Anticalculus oral composition” (Colgate-Palmolive Company, priority 1985, dated 2013).

Where two headings read alike, the source gives them in different places.

How the values of data set [1] were obtained:
The in vitro formation of HAP is measured titrimetrically via a pH stat procedure. Stock solutions of 0.1M CaCl2 and 0.1M NaH2PO4 are prepared fresh in carbonate-free deionized distilled water. To 23 ml CO2-free deionized water 1.0 ml. of the stock phosphate solution and 1.0 ml. of an aqueous solution of 1×10^−4 of the anticalculus agent being tested are added followed by 1.0 ml. of the stock calcium-chloride solution which initiates the reaction. The reaction is conducted at pH 7.4 under a nitrogen atmosphere. Consumption of 0.1N NaOH is recorded automatically from which the time required for crystal formation is determined.

In data set [2] the test system is acid phosphatase, alkaline phosphatase, and inorganic pyrophosphatase. As to conditions: for Percent Orthophosphate Released in 90 min.: pH 7.0, 37° C. How it is done:
Enzymatic hydrolysis is conducted in 100 millimolar morpholinopropane sulfonic acid—NaOH buffer solution (pH 7.0) containing 1.3 mg./ml of TSPP. Inhibitors of this invention are added (except to the control) to a final concentration of 1,000 ppm fluoride ion (from NaF) and 0.5% of the sodium salt of hydrolyzed methoxyethylene-maleic anhydride (1:1) copolymer, M.W. 70,000 (Gantrez S-97 Pharmaceutical Grade). Equal activities of acid phosphatase, alkaline phosphatase, and inorganic pyrophosphatase are then added to yield a total phosphatase activity of 0.3 units/ml. Samples of the test solution are taken and total orthophosphate available in each sample measured after 3 hours hydrolysis in 4N HCl at 100° C. The reaction mixture is incubated at 37° C. with shaking and aliquots taken at appropriate times through at least 90 minutes for orthophosphate determination.

With `O=P([O-])([O-])OP(=O)([O-])[O-].[Na+].[Na+].[Na+].[Na+]` [TSPP, Tetrasodium pyrophosphate], the “Time of Crystal Growth Inhibition” value in data set [1] (Water, pH 7.4, nitrogen atmosphere) was found to be 0.8 h; in data set [1] (incubated with Alk. Phosphatase, pH 7.4) it was 0.0 h; in data set [1] (incubated with Pyrophosphatase, pH 7.4), 0.3 h; in data set [1] (incubated with Saliva, pH 7.4), 0.4 h. Also, the “Delay of HAP formation (in words)” value in data set [1] (in water) is listed as “significantly delays HAP formation”. The “Delay period of HAP formation (in words)” value in data set [1] (incubated with pyrophosphatase and alkaline phosphatase) is reported as “drastically reduces the delay period”. Besides, in data set [1] (incubated with saliva), the “Effectiveness in delaying HAP formation (in words)” value is “drastically reduced”. The “Percent Orthophosphate Released in 90 min.” value was 98% in data set [2] (Control (no inhibitors), 1.3 mg./ml TSPP, total phosphatase activity 0.3 units/ml); 58% in data set [2] (With Inhibitors: 1,000 ppm fluoride ion (from NaF) and 0.5% Gantrez S-97, 0.3 units/ml phosphatase). Besides, in data set [2] (With inhibitors vs control, 90 min.), the “Percent Relative Protection (reduction of hydrolysis of P-O-P bonds with inhibitors)” value turned out to be 41%.

`O=P([O-])([O-])OP(=O)([O-])[O-].[K+].[K+].[K+].[K+]` [TKPP, tetrapotassium pyrophosphate]: the “HAP formation inhibition results compared with TSPP (in words)” value in data set [1] (water, saliva, pyrophosphatase, alkaline phosphatase, TKPP instead of TSPP) is listed as “Substantially the same results”. Further, the “Enzymatic hydrolysis results compared with TSPP (in words)” value in data set [2] (equivalent amounts of TKPP substituted for TSPP, with and without inhibitors) is “Substantially the same results”.
